According to ChEMBL document CHEMBL4052660, “The tobacco cembranoid (1S,2E,4S,7E,11E)-2,7,11-cembratriene-4,6-diol as a novel angiogenesis inhibitory lead for the control of breast malignancies” (Bioorg Med Chem, 2017):
Activity calls are given as the source filed them. The calls are words filed in the database; no cut-off is given here.

Assays:
[1] = molecular target: Vascular endothelial growth factor receptor 2 (Homo sapiens) (UniProt P35968); experiment: Inhibition of VEGFR2 phosphorylation in human MDA-MB-231 cells at 50 uM by Western blot analysis; assay type: cell-based
Vascular endothelial growth factor receptor 2 (Homo sapiens), sequence (P35968 whole entry): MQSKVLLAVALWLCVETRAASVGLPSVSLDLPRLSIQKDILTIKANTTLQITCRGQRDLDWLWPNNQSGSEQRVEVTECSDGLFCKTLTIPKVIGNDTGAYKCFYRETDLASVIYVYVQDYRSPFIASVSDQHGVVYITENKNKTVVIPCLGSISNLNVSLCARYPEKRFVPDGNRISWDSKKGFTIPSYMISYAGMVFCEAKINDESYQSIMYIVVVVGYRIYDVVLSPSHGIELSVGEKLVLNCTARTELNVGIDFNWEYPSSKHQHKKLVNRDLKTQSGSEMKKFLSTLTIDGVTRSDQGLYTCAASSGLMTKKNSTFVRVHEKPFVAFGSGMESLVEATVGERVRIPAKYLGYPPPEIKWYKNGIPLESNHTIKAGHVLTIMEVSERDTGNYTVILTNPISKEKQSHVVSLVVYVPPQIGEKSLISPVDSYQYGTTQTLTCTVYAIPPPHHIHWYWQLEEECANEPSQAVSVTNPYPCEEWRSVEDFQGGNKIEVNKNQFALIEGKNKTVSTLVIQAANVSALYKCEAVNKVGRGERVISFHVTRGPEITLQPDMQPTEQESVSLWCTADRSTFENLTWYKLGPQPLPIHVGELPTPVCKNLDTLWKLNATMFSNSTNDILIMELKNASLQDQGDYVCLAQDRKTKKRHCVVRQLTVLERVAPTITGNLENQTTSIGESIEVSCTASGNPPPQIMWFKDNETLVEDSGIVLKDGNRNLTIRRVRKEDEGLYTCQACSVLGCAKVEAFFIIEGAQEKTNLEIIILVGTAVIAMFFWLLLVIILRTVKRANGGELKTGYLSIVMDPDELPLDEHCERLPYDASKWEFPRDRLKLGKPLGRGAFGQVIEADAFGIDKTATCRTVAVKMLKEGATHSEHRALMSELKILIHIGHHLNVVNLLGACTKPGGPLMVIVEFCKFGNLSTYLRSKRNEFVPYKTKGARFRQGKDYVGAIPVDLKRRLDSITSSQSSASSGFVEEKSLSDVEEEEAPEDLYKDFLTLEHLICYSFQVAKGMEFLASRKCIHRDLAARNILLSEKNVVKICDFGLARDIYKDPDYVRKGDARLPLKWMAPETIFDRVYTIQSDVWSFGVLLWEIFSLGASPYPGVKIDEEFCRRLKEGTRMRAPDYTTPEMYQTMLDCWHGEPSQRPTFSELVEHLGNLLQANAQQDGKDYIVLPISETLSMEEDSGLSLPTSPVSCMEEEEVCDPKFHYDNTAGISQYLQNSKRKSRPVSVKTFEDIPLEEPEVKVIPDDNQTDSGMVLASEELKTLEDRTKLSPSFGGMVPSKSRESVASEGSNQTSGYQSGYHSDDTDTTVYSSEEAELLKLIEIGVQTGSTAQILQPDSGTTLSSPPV

[2] = molecular target: Vascular endothelial growth factor receptor 2 (Homo sapiens) (UniProt P35968); experiment: Inhibition of VEGFR2 phosphorylation in human MDA-MB-231 cells at 20 uM by Western blot analysis; assay type: cell-based
[3] = molecular target: Vascular endothelial growth factor receptor 2 (Homo sapiens) (UniProt P35968); experiment: Inhibition of VEGFR2 in human BT474 cells assessed as reduction in Akt phosphorylation at 20 to 50 uM by Western blot analysis; assay type: cell-based
[4] = molecular target: Vascular endothelial growth factor receptor 2 (Homo sapiens) (UniProt P35968); experiment: Inhibition of VEGFR2 in human BT474 cells assessed as downregulation of phosphorylated FAK levels at 50 uM by Western blot analysis; assay type: cell-based
[5] = molecular target: Vascular endothelial growth factor receptor 2 (Homo sapiens) (UniProt P35968); experiment: Inhibition of VEGFR2 phosphorylation in human BT474 cells at 50 uM by Western blot analysis; assay type: cell-based
Serum [6] = experiment: Drug metabolism in athymic nude mouse serum assessed as dihydroxylated metabolite formation at 40 mg/kg, ip after 2 hrs by ES-MS analysis; assay type: ADME, organism-based; details: in vivo
[7] = molecular target: Vascular endothelial growth factor receptor 2 (Homo sapiens) (UniProt P35968); experiment: Inhibition of VEGFR2 in human MDA-MB-231 cells assessed as downregulation of phosphorylated FAK levels at 50 uM by Western blot analysis; assay type: cell-based
[8] = molecular target: Vascular endothelial growth factor receptor 2 (Homo sapiens) (UniProt P35968); experiment: Inhibition of VEGFR2 in human MDA-MB-231 cells assessed as downregulation of phosphorylated paxillin levels at 50 uM by Western blot analysis; assay type: cell-based
[9] = molecular target: Vascular endothelial growth factor receptor 2 (Homo sapiens) (UniProt P35968); experiment: Inhibition of VEGFR2 phosphorylation in human BT474 cells at 20 uM by Western blot analysis; assay type: cell-based
[10] = molecular target: Vascular endothelial growth factor receptor 2 (Homo sapiens) (UniProt P35968); experiment: Inhibition of VEGFR2 in human MDA-MB-231 cells assessed as downregulation of phosphorylated FAK levels at 20 uM by Western blot analysis; assay type: cell-based
[11] = molecular target: Vascular endothelial growth factor receptor 2 (Homo sapiens) (UniProt P35968); experiment: Inhibition of VEGFR2 in human BT474 cells assessed as reduction in PI3K phosphorylation at 20 to 50 uM by Western blot analysis; assay type: cell-based
[12] = molecular target: Vascular endothelial growth factor receptor 2 (Homo sapiens) (UniProt P35968); experiment: Inhibition of VEGFR2 in human MDA-MB-231 cells assessed as reduction in PI3K phosphorylation at 20 to 50 uM by Western blot analysis; assay type: cell-based
Serum [13] = experiment: Drug metabolism in athymic nude mouse serum assessed as monohydroxylated metabolite formation at 40 mg/kg, ip after 2 hrs by ES-MS analysis; assay type: ADME, organism-based; details: in vivo
[14] = molecular target: Vascular endothelial growth factor receptor 2 (Homo sapiens) (UniProt P35968); experiment: Inhibition of VEGFR2 in human MDA-MB-231 cells assessed as reduction in Akt phosphorylation at 20 to 50 uM by Western blot analysis; assay type: cell-based
[15] = molecular target: Vascular endothelial growth factor receptor 2 (Homo sapiens) (UniProt P35968); experiment: Inhibition of VEGFR2 in human BT474 cells assessed as downregulation of phosphorylated paxillin levels at 20 uM by Western blot analysis; assay type: cell-based
[16] = molecular target: Vascular endothelial growth factor receptor 2 (Homo sapiens) (UniProt P35968); experiment: Inhibition of VEGFR2 in human BT474 cells assessed as downregulation of phosphorylated paxillin levels at 50 uM by Western blot analysis; assay type: cell-based
Serum [17] = experiment: Drug uptake in athymic nude mouse serum at 40 mg/kg, ip after 2 hrs by ES-MS analysis; assay type: ADME, organism-based; details: in vivo
[18] = molecular target: Vascular endothelial growth factor receptor 2 (Homo sapiens) (UniProt P35968); experiment: Inhibition of VEGFR2 in human MDA-MB-231 cells assessed as downregulation of phosphorylated paxillin levels at 20 uM by Western blot analysis; assay type: cell-based
[19] = molecular target: Vascular endothelial growth factor receptor 2 (Homo sapiens) (UniProt P35968); experiment: Inhibition of VEGFR2 in human BT474 cells assessed as downregulation of phosphorylated FAK levels at 20 uM by Western blot analysis; assay type: cell-based
Mus musculus = experiment: Antiangiogenic activity in matrigel injected Swiss albino mouse assessed as reduction in hemoglobin content in matrigel plug at 2.5 mg/kg, ip every other day for 20 days by matrigel assay; assay type: functional; design: scale not given: the % may be the effect or the level left

| inhibition [1] [%] | inhibition [2] [%] | inhibition [3] | inhibition [4] [%] | inhibition [5] [%] | Drug metabolism (Serum [6]) | inhibition [7] [%] | inhibition [8] [%] | inhibition [9] [%] | inhibition [10] [%] | inhibition [11] | inhibition [12] | Drug metabolism (Serum [13]) | inhibition [14] | inhibition [15] [%] | inhibition [16] [%] | Drug uptake (Serum [17]) | inhibition [18] [%] | inhibition [19] [%] | Compound | Activity (Mus musculus) [%] |
| --- | --- | --- | --- | --- | --- | --- | --- | --- | --- | --- | --- | --- | --- | --- | --- | --- | --- | --- | --- | --- |
| 65.3 | 60.6 | inactive | 74.8 | 58.6 | Metabolite_Detected | 41.3 | 96.1 | 43.1 | 26 | inactive | inactive | Metabolite_Detected | inactive | 70.9 | 82.1 | Active | 58.7 | 48.9 | C/C1=C\[C@H](O)C[C@](C)(O)/C=C/[C@H](C(C)C)CC/C(C)=C/CC1 |  |
|  |  |  |  |  |  |  |  |  |  |  |  |  |  |  |  |  |  |  | CCN(CC)CCNC(=O)c1c(C)[nH]c(/C=C2\C(=O)Nc3ccc(F)cc32)c1C [SUNITINIB] | 80 |
